Patent US8574831B2, “Mutational profiles in HIV-1 reverse transcriptase correlated with phenotypic drug resistance” (Virco N.V., priority 2000, dated 2013)

System: HIV with mutations in the HIV protease sequence
Test: Phenotypic fold resistance to protease inhibitors, protease mutations 84A/84L/84C/54M/54L/54V in a background (Examples 8-13)
Format: cell-based, HIV-1
Description: As is the case with the genotyping assays, the recombinant virus assay starts with the amplification of viral target sequences by means of PCR. The amplicons are incorporated into a proviral laboratory clone with sequences homologous to those present in the amplicon deleted. This generates a stock of chimeric viruses. The viruses are tested for their ability to grow in the presence of different concentrations of drugs. Results are obtained by calculating IC50 values for each inhibitor and by reporting the results as IC50 values, expressed in μM concentrations, or by computing the ratio of the IC50 values found for the chimeric virus to the IC50 values found for a wild type susceptible laboratory virus tested in parallel. In the latter case, resistance is expressed as “fold-resistance” compared to a wild-type susceptible HIV-1 strain. In order to meet the need for high-volume testing and a short turn-around time for an individual test, the latest generation of phenotyping assays has undergone further modifications. The use of reporter gene systems for susceptibility testing allows the implementation of laboratory automation and standardization. See Pauwels, et al., J. Virol. Methods 20, 309-321 (1998); Paulous, S., et al., International Workshop on HIV Drug Resistance, Treatment Strategies and Eradication, St. Petersburg, Fla., USA. Abstr. 46 (1997); and Deeks, S. G., et al., 2nd International Workshop on HIV Drug Resistance and Treatment Strategies, Lake Maggiore, Italy. Abstr. 53 (1998).
The ANTIVIROGRAM® assay (Virco) (WO 97/27480) is based on homologous recombination of patient derived HIV-1 gag/PR/RT sequences into a proviral HIV-1 clone correspondingly deleted for the gag/PR/RT sequences. See Pauwels, et al., J. Virol. Methods 20, 309-321 (1998). A similar assay (Phenosense ViroLogic) is based on enzymatic ligation of patient-derived PR/RT sequences into a correspondingly deleted proviral vector carrying an indicator gene, luciferase, inserted in the deleted HIV-1 envelope gene. See Deeks, S. G., et al., 2nd International Workshop on HIV Drug Resistance and Treatment Strategies, Lake Maggiore, Italy. Abstr. 53 (1998). Hertogs et al. Antimicrob. Agents Chemother. 44(3) 568-573 (2000) the disclosures of which are herein incorporated by reference.
The methods of monitoring HIV-1 drug resistance, may also be used in combination with phenotypic drug resistance testing of viral isolates. For example, in one embodiment, a phenotypic test is utilized that is based upon the construction of chimeric HIV-1 strains composed of the protease (PR) and reverse transcriptase (RT) gene sequences which are isolated and amplified from the patient viral RNA. These strains may subsequently be recombined inside CD4+ T cells with a standard laboratory isogenic (HXB2) HIV-1 DNA construct from which the PR/RT gene sequences were deleted. The recombinant strains may then be grown in the presence of the above-mentioned antiviral drugs and the susceptibility of the viral isolates may be expressed as fold-change value of the IC50 of the drug on the patient isolates over the IC50 of the drug on a wild-type laboratory reference strain.

For `CC(C)(C)NC(=O)[C@@H]1C[C@@H]2CCCC[C@@H]2CN1C[C@@H](O)[C@H](Cc1ccccc1)NC(=O)[C@H](CC(N)=O)NC(=O)c1ccc2ccccc2n1` [Saquinavir, saquinavir], the “Fold change in IC50” value (Table 12, V055199, genotype 10I + 33F + 54M + 90M) was 5.6 fold, the “Fold change in IC50” value (Table 13, V19263, genotype 77I) was 0.3 fold and the “Fold change in IC50” value (Table 13, V20160, genotype WT) was 0.9 fold. The “Fold change in IC50” value (Table 13, V021667, genotype 10I) was 0.9 fold, the “Fold change in IC50” value (Table 13, V030496, genotype 10I + 77I) was 0.3 fold and the “Fold change in IC50” value (Table 13, V048868, genotype 10I + 54L + 71V + 77I + 90M) was 16.5 fold. For the same compound, the “Fold change in IC50” value (Table 13, V048874, genotype 10I + 33F + 54L + 71V + 77I + 90M) was 4.6 fold, the “Fold change in IC50” value (Table 13, V048875, genotype 10I + 33F + 54L + 71V + 77I + 90M) was 12.0 fold and the “Fold change in IC50” value (Table 13, V048877, genotype 10I + 33F + 77I + 90M) was 1.5 fold. For the same compound, the “Fold change in IC50” value (Table 13, V048880, genotype 10I + 33F + 77I + 90M) was 2.7 fold, the “Fold change in IC50” value (Table 13, V052940, genotype 71V) was 0.8 fold and the “Fold change in IC50” value (Table 13, V052942, genotype 10I + 71V) was 0.8 fold. For the same compound, the “Fold change in IC50” value (Table 13, V052943, genotype 10I + 90M) was 1.1 fold, the “Fold change in IC50” value (Table 13, V052944, genotype 10I + 90M) was 0.7 fold and the “Fold change in IC50” value (Table 13, V052945, genotype 77I + 90M) was 1.4 fold. For the same compound, the “Fold change in IC50” value (Table 13, V052946, genotype 71V + 90M) was 1.4 fold, the “Fold change in IC50” value (Table 13, V052947, genotype 10I + 77I + 90M) was 3.9 fold and the “Fold change in IC50” value (Table 13, V052948, genotype 10I + 71V + 90M) was 4.8 fold. For the same compound, the “Fold change in IC50” value (Table 13, V052949, genotype 10I + 71V + 77I + 90M) was 2.1 fold, the “Fold change in IC50” value (Table 13, V052950, genotype 33F) was 1.2 fold and the “Fold change in IC50” value (Table 13, V052951, genotype 33F + 77I) was 0.4 fold. The “Fold change in IC50” value (Table 13, V052953, genotype 10I + 33F + 77I) was 1.2 fold, the “Fold change in IC50” value (Table 13, V052954, genotype 33F + 77I + 90M) was 1.7 fold and the “Fold change in IC50” value (Table 13, V052955, genotype 33F + 71V + 90M) was 20.4 fold. The “Fold change in IC50” value (Table 13, V052968, genotype 10L/I + 33F/L + 54L + 77I) was 1.5 fold, the “Fold change in IC50” value (Table 13, V052969, genotype 10I + 33F + 54L + 90M) was 1.4 fold and the “Fold change in IC50” value (Table 13, V052970, genotype 54L) was 0.7 fold. For the same compound, the “Fold change in IC50” value (Table 13, V052971, genotype 10I + 54L) was 0.7 fold, the “Fold change in IC50” value (Table 13, V052972, genotype 54L + 77I) was 1.0 fold and the “Fold change in IC50” value (Table 13, V052973, genotype 10I + 54L + 77I) was 0.8 fold. The “Fold change in IC50” value (Table 13, V052974, genotype 10I + 54L + 90M) was 1.1 fold, the “Fold change in IC50” value (Table 13, V052975, genotype 10I + 54L + 71V + 90M) was 24.2 fold and the “Fold change in IC50” value (Table 13, V052976, genotype 10I + 54L + 71V + 77I + 90M) was 1.8 fold. The “Fold change in IC50” value (Table 13, V053832, genotype 10I + 33F) was 0.5 fold, the “Fold change in IC50” value (Table 13, V053854, genotype 54L + 71V) was 0.9 fold and the “Fold change in IC50” value (Virco ID 214846, genotype 10I + 33F + 54V + 71V + 77I + 90M, vs mean IC50 of wild type laboratory HIV strain) was 27.8 fold. The “Fold change in IC50” value (Virco ID V021667, genotype 10I, vs mean IC50 of wild type laboratory HIV strain) was 0.9 fold, the “Fold change in IC50” value (Virco ID V030496, genotype 10I + 77I, vs mean IC50 of wild type laboratory HIV strain) was 0.3 fold and the “Fold change in IC50” value (Virco ID V048876, genotype 33F + 54V + 77I + 90M, vs mean IC50 of wild type laboratory HIV strain) was 1.5 fold. The “Fold change in IC50” value (Virco ID V048877, genotype 10I + 33F + 77I + 90M, vs mean IC50 of wild type laboratory HIV strain) was 1.5 fold, the “Fold change in IC50” value (Virco ID V048880, genotype 10I + 33F + 77I + 90M, vs mean IC50 of wild type laboratory HIV strain) was 2.7 fold and the “Fold change in IC50” value (Virco ID V052940, genotype 71V, vs mean IC50 of wild type laboratory HIV strain) was 0.8 fold. The “Fold change in IC50” value (Virco ID V052942, genotype 10I + 71V, vs mean IC50 of wild type laboratory HIV strain) was 0.8 fold, the “Fold change in IC50” value (Virco ID V052943, genotype 10I + 90M, vs mean IC50 of wild type laboratory HIV strain) was 1.1 fold and the “Fold change in IC50” value (Virco ID V052944, genotype 10I + 90M, vs mean IC50 of wild type laboratory HIV strain) was 0.7 fold. The “Fold change in IC50” value (Virco ID V052946, genotype 71V + 90M, vs mean IC50 of wild type laboratory HIV strain) was 1.4 fold, the “Fold change in IC50” value (Virco ID V052947, genotype 10I + 77I + 90M, vs mean IC50 of wild type laboratory HIV strain) was 3.9 fold and the “Fold change in IC50” value (Virco ID V052948, genotype 10I + 71V + 90M, vs mean IC50 of wild type laboratory HIV strain) was 4.8 fold. The “Fold change in IC50” value (Virco ID V052949, genotype 10I + 71V + 77I + 90M, vs mean IC50 of wild type laboratory HIV strain) was 2.1 fold, the “Fold change in IC50” value (Virco ID V052950, genotype 33F, vs mean IC50 of wild type laboratory HIV strain) was 1.2 fold and the “Fold change in IC50” value (Virco ID V052951, genotype 33F + 77I, vs mean IC50 of wild type laboratory HIV strain) was 0.4 fold. For the same compound, the “Fold change in IC50” value (Virco ID V052953, genotype 10I + 33F + 77I, vs mean IC50 of wild type laboratory HIV strain) was 1.2 fold, the “Fold change in IC50” value (Virco ID V052954, genotype 33F + 77I + 90M, vs mean IC50 of wild type laboratory HIV strain) was 1.7 fold and the “Fold change in IC50” value (Virco ID V052955, genotype 33F + 71V + 90M, vs mean IC50 of wild type laboratory HIV strain) was 20.4 fold. For the same compound, the “Fold change in IC50” value (Virco ID V052957, genotype 10I + 33F + 54V + 90M, vs mean IC50 of wild type laboratory HIV strain) was 1.6 fold, the “Fold change in IC50” value (Virco ID V052958, genotype 10I + 33F + 54V + 77I + 90M, vs mean IC50 of wild type laboratory HIV strain) was 1.0 fold and the “Fold change in IC50” value (Virco ID V052959, genotype 10I + 33F + 54V + 77I + 90M, vs mean IC50 of wild type laboratory HIV strain) was 1.0 fold. For the same compound, the “Fold change in IC50” value (Virco ID V052960, genotype 10I + 33F + 54V + 71V + 90M, vs mean IC50 of wild type laboratory HIV strain) was 21.8 fold, the “Fold change in IC50” value (Virco ID V052961, genotype 54V, vs mean IC50 of wild type laboratory HIV strain) was 1.0 fold and the “Fold change in IC50” value (Virco ID V052962, genotype 10I + 54V, vs mean IC50 of wild type laboratory HIV strain) was 0.9 fold. The “Fold change in IC50” value (Virco ID V052963, genotype 54V + 77I + 90M, vs mean IC50 of wild type laboratory HIV strain) was 1.3 fold, the “Fold change in IC50” value (Virco ID V052964, genotype 54V + 71V + 90M, vs mean IC50 of wild type laboratory HIV strain) was 1.4 fold and the “Fold change in IC50” value (Virco ID V052965, genotype 10I + 54V + 77I + 90M, vs mean IC50 of wild type laboratory HIV strain) was 6.3 fold. The “Fold change in IC50” value (Virco ID V052966, genotype 10I + 54V + 71V + 90M, vs mean IC50 of wild type laboratory HIV strain) was 28.6 fold, the “Fold change in IC50” value (Virco ID V052967, genotype 10I + 54V + 71V + 77I + 90M, vs mean IC50 of wild type laboratory HIV strain) was 0.6 fold and the “Fold change in IC50” value (Virco ID V053358, genotype 33F + 54V + 77I + 90M, vs mean IC50 of wild type laboratory HIV strain) was 1.3 fold. The “Fold change in IC50” value (Virco ID V053831, genotype 33F + 54V, vs mean IC50 of wild type laboratory HIV strain) was 1.0 fold and the “Fold change in IC50” value (Virco ID V053832, genotype 10I + 33F, vs mean IC50 of wild type laboratory HIV strain) was 0.5 fold.
